In paper PMC4793209 (2016):

What was measured:
Experiment in all cases: in-line probing
[1] = test system: 108 yjdF RNA (WT, B. subtilis) (RNA, riboswitch) GGUAUAUGGUAAAGAAUGAAAAAACACGAUUCGGUUGGUAGUCCGGAUGCAUGAUUGAGAAUGUCAGUAACCUUCCCCUCCUCGGGAUGUCCAUCAUUCUUUAAUAUCU; settings: 100 mM KCl, 20 mM MgCl2, 50 mM Tris-HCl pH 8.3, 25 °C
[2] = test system: 108 yjdF M1 (RNA, riboswitch) GGUAUAUGGUAAACUAUGAAAAAACACGAUUCGGUUGGUAGUCCGGAUGCAUGAUUGAGAAUGUCAGUAACCUUCCCCUCCUCGGGAUGUCCAUCAUUCUUUAAUAUCU; settings: 100 mM KCl, 20 mM MgCl2; 50 mM Tris-HCl pH 8.3, 25 °C; affinity reduced against WT
[3] = test system: 108 yjdF M3 (RNA, riboswitch) GGUAUAUGGUAAAGAAUGAAAAAACACGAUUCGGUUGGUCGUCCGGAUGCAUGAUUGAGAAUGUCAGUAACCUUCCCCUCCUCGGGAUGUCCAUCAUUCUUUAAUAUCU; settings: 100 mM KCl, 20 mM MgCl2; 50 mM Tris-HCl pH 8.3, 25 °C
[4] = test system: 108 yjdF M2 (RNA, riboswitch) GGUAUAUGGUAAACUAUGAAAAAACACGAUUCGGUUGGUAGUCCGGAUGCAUGAUUGAGAAUGUCAGUAACCUUCCCCUCCUCGGGAUGUCCAUCAUAGUUUAAUAUCU; settings: 100 mM KCl, 20 mM MgCl2; 50 mM Tris-HCl pH 8.3, 25 °C; near WT affinity
[5] = test system: 107 yjdF RNA (B. endophyticus) (RNA, riboswitch) GGUAUAUGAAAUGAAAAAACACAAUUCGGUUGGUAGUCCGGAUGCAUCAUAAUAAAUGAAUGUCAGUAGCCUUCCCCUCCUCGGGAUGUCCAUCAUUUCAUAGUAUUUU; settings: 100 mM KCl, 20 mM MgCl2; 50 mM Tris-HCl pH 8.3, 25 °C
[6] = apparent, unit in unseen head of Table S1
[7] = 36-48 h, RNA <5 nM, apparent, 10 µM or poorer

Cc1cc2nc3c(=O)[nH]c(=O)nc-3n(C)c2cc1C
KD ([1]; 36-48 h, RNA <5 nM, apparent): 800 nM

Nc1ccc2cc3ccc(N)cc3nc2c1
binding [2]: weak | binding [3]: no | binding [4]: yes | KD ([1]; 36-48 h, RNA <5 nM, apparent): 6.1 nM

Cc1cc2nc3c(=O)[nH]c(=O)nc-3n(C[C@H](O)[C@H](O)[C@H](O)CO)c2cc1C
binding [3]: no | binding ([1]; riboflavin 0-10 µM, weaker than proflavine): yes

C[n+]1cc2c3c(ccc2c2ccc4cc5c(cc4c21)OCO5)OCO3
KD ([1]; 36-48 h, RNA <5 nM, apparent): 4.2 nM

COc1ccc2c(c[n+](C)c3c4cc5c(cc4ccc23)OCO5)c1OC
binding [5]: yes | KD ([1]; 36-48 h, RNA <5 nM, apparent): 2.5 nM

C[C@H](CCC(=O)NCCS(=O)(=O)O)[C@H]1CC[C@H]2[C@@H]3CC[C@@H]4C[C@H](O)CC[C@]4(C)[C@H]3C[C@H](O)[C@]12C
KD [1, 6]: > 100

O=C(O)/C=C/c1ccccc1
KD [1, 7]: > 10000 nM

C[C@H](CCC(=O)O)[C@H]1CC[C@H]2[C@@H]3CC[C@@H]4C[C@H](O)CC[C@]4(C)[C@H]3C[C@H](O)[C@]12C
KD [1, 6]: > 100

O=C(O)/C=C/c1ccc(O)c(O)c1
KD [1, 7]: > 10000 nM

C[C@H](CCC(=O)O)[C@H]1CC[C@H]2[C@@H]3[C@H](O)C[C@@H]4C[C@H](O)CC[C@]4(C)[C@H]3CC[C@]12C
KD [1, 6]: > 100

CCn1cc(C(=O)O)c(=O)c2ccc(C)nc21
KD ([1]; 36-48 h, RNA <5 nM, apparent): ~ 1 µM

Cc1nccc2c1[nH]c1ccccc12
binding ([1]; apparent): yes

Cc1cc(N)c2ccccc2[n+]1CCCCCCCCCC[n+]1c(C)cc(N)c2ccccc21
binding ([1]; apparent): yes

CC(=O)Oc1ccccc1C(=O)O
KD [1, 7]: > 10000 nM
